Data reported in patent US20240398783A1, “Compounds and Pharmaceutical Compositions Comprising Inhibitors of Amyloid Peptide Interactions with Glycosaminoglycans, Methods of Treatment and Use Thereof” (Gismo Therapeutics, Inc., priority 2021, published 2024).
Counter-ions that a name gives are not always drawn. Like-named read-outs stand apart in the source and are kept apart here. Blank lines part the entries; values can stand above or below the molecule they belong to.

Columns and labels:
[1] = target: TDP-43 binding to heparin (HS-GAG) (Homo sapiens, UniProt Q13148); test: Inhibition of TDP-43 binding to immobilized heparin-BSA (ELISA); set-up: species or system porcine; settings: for IC50: TDP-43, heparin-BSA; for inhibition at 30 µM: read-out: TDP43/Heparin Activity (% inhibition class)
Chain of TDP-43 binding to heparin (HS-GAG) (Q13148 whole entry): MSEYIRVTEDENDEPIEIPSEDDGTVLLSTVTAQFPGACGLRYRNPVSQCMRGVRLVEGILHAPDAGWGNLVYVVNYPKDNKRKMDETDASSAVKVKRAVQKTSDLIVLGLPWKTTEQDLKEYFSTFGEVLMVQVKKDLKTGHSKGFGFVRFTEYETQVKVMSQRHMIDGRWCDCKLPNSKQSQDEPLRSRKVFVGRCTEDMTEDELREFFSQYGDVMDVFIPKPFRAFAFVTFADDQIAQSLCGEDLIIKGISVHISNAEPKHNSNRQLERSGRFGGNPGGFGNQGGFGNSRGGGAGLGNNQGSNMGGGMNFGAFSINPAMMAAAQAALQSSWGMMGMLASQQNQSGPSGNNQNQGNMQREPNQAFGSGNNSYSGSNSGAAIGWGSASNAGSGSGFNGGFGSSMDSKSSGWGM
Protocol: (§1) Porcine intestinal mucosa heparin conjugated to Bovine Serum Albumin (Heparin-BSA) was prepared as described (Najjam, S. et al. 1997, Cytokine 12, 1013-1022). Heparin is a sulfated HS-GAG and is commonly used as a HS-GAG in biochemical and binding assays (Lindahl, U. and Kjellen, L. (2013) ibid). Heparin-BSA at 0.01 mg/ml in Phosphate Buffered Saline (PBS; pH 7.4) was added to a 96 well polystyrene ELISA plate (NUNC Cat. No. 449824; 100 μl per well) and incubated Over Night (ON) at 4 degrees Celsius. For negative controls, ELISA plates were coated with BSA instead of Heparin-BSA, using the same procedure. Following the incubation, the plate was washed consecutively, by immersion, with de-ionized water and PBS (pH 7.4). The ELISA plate was then blocked with nonfat milk (2%, 200 μl per well) for 2 hours at Room Temperature (RT) with gentle shaking. Following blocking, the plate was washed with de-ionized water then PBS (pH 7.4). GBAPs were dissolved and diluted in PBS (pH 6.5, supplemented with 0.1% BSA) at desired concentrations, added to the ELISA plates containing immobilized Heparin-BSA (100 μl per well) and incubated for 2 hours at RT with gentle shaking. Following incubation, the plate was washed with de-ionized water and three times with PBS (pH 6.5) plus Tween. Bound GBAP was detected by a monoclonal antibody specific for that GBAP, followed by incubation with secondary antibody conjugated to horseradish peroxidase (HRP). Antibody was diluted in PBS (pH 6.5 supplemented with 1% BSA). Following each incubation with antibody, the plate was washed with de-ionized water and three times with PBS (pH 6.5) wash buffer containing 0.1% Tween. The peroxidase substrate chromogen, TMB (Dako Cat. No. S1599) was added (100 μl per well) to the ELISA plate and incubated at room temperature. After 5 minutes ELISA Stop Solution (hydrochloric acid 1N, sulfuric acid 3N) was added (100 μl per well) to stop the peroxidase catalyzed colorimetric reaction. The Optical Density of the samples was measured at 450 nm using an ELISA plate reader (BioTek Synergy H1). Following color development, the % inhibition compared to control (BSA-coated plates) was determined. IC-50s were calculated using GraphPad Prism software.
The assay was performed as described in Example 43, with the following modifications.
Following to coating the plates with Heparin-BSA, plates were washed as described. The compounds were dissolved in DMSO at 10 mM final concentration and further diluted prior to assay. DMSO concentration in the screening well was up to 2%. Individual compounds were co-incubated with TDP-43 on plates containing immobilized heparin. TDP43 from R&D System (Cat. No. AP-190) was quickly frozen and kept in aliquots at −80 degrees Celsius. TDP-43 dissolved in PBS (pH 6.5, supplemented with BSA, 0.1%) was added to the ELISA plate (100 μl per well) and incubated for 2 hours at RT with gentle shaking. Following the incubation, the plate was washed with de-ionized water and three times with PBS (pH 6.5) plus Tween. Bound TDP-43 was detected by Anti-TDP43 Monoclonal Antibody (R&D System Cat. No. MAB7778), followed by secondary anti-IgG antibody conjugated to HRP (R&D System, Cat. No. HAF007). Following to color development with TMB, as described in Example 43, the Optical Density of the samples was measured at 450 nm using an ELISA plate reader. Following color development, the % inhibition compared to control (no compound, DMSO control) for every compound was determined.
As described in Example 43, Heparin in the form of Heparin-BSA conjugate is used as a source of HS-GAG. For each compound IC-50 value in TDP-43—heparin-BSA binding assay is shown in μM (micromolar). In some cases IC-50 was not measured and % inhibition at 30 μM compound concentration is shown instead. […] All assays were done on 96-well plates in duplicates and experiments were repeated at least twice. […]

[2] = target: T1, SAA binding to heparin (HS-GAG) (Homo sapiens, UniProt P0DJI8); test: Inhibition of SAA binding to immobilized heparin-BSA (ELISA); set-up: species or system porcine
T1 sequence (P0DJI8 19-122): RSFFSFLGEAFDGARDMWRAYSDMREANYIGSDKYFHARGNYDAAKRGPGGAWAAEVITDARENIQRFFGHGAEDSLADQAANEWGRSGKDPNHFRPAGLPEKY
Protocol: as §1
The assay was performed as described in Example 43, with the following modifications. Following to coating the plates with Heparin-BSA, plates were washed as described. The compounds were dissolved in DMSO at 10 mM final concentration and further diluted prior to assay. DMSO concentration in the screening well was up to 2%. Individual compounds were co-incubated with SAA on plates containing immobilized heparin. Serum amyloid A (SAA) from PeProtech (NJ, USA, Cat. No. 300-53) was dissolved in DMSO, quickly frozen and kept in aliquots at −80 degrees Celsius. SAA dissolved in Tris buffer (pH 6.5, supplemented with BSA, 0.1%) was added to the ELISA plate (100 μl per well) and incubated for 2 hours at RT with gentle shaking. Following the incubation, the plate was washed with de-ionized water and three times with Tris Buffered Saline (TBS, pH 6.5) plus Tween. Bound SAA was detected by Anti-SAA Monoclonal Antibody (R&D System Cat. No. MAB30192), followed by secondary anti-IgG antibody conjugated to HRP (R&D System, Cat. No. HAF007). Antibody was diluted in TBS antibody buffer (pH6.5 supplemented with 1% BSA). Following each incubation with antibody, the plate was washed with de-ionized water and three times with TBS (pH6.5) wash buffer containing 0.1% Tween. Following to color development with TMB, as described in Example 43, the Optical Density of the samples was measured at 450 nm using an ELISA plate reader. Following color development, the % inhibition compared to control (no compound, DMSO control) for every compound was determined.
As described in Example 43, Heparin in the form of Heparin-BSA conjugate is used as a source of HS-GAG. For each compound IC-50 value in SAA—heparin-BSA binding assay is shown in μM (micromolar). […]

[3] = read-out: Serum Amyloid A/Heparin Activity (IC-50); SAA, heparin-BSA
[4] = read-out: Serum Amyloid A/Heparin Activity (% inhibition class)
[5] = 30 μM compound; SAA, heparin-BSA; read-out: Serum Amyloid A/Heparin Activity (% inhibition class)

- IC50 ([1]; read-out: TDP43/Heparin Activity (IC-50)): 2.92 µM
- IC50 ([2]; SAA, heparin-BSA; read-out: Serum Amyloid A/Heparin Activity (IC-50)): 8.16 µM
Compound: Cc1cc(-n2ccnc2)ccc1/C=N/Nc1ccnc2cc(Cl)ccc12 [Compound 1, (E)-4-((E)-(4-(1H-imidazol-1-yl)-2-methylbenzylidene)hydrazono)-7-chloro-1,4-dihydroquinoline]

Compound: Cc1ncn(-c2ccc(/C=N/Nc3ccnc4cc(Cl)ccc34)cc2)c1C [Compound 2, (E)-7-chloro-4-((E)-(4-(4,5-dimethyl-1H-imidazol-1-yl)benzylidene)hydrazono)-1,4-dihydroquinoline]
- IC50 ([1]; TDP43/Heparin Activity (IC-50)): 61.7 µM
- IC50 [2, 3]: 16 µM

Compound: Clc1ccc2c(N/N=C/c3ccc(-n4cccn4)cc3)ccnc2c1 [Compound 3, (E)-4-((E)-(4-(1H-pyrazol-1-yl)benzylidene)hydrazono)-7-chloro-1,4-dihydroquinoline]
- IC50 ([1]; TDP43/Heparin Activity (IC-50)): 8.1 µM
- inhibition at 30 µM [2, 4]: > 30%

Compound: C[N+](C)(C)Cc1ccc(/C=N\Nc2ccnc3ccc(Cl)cc23)cc1 [Compound 4, (Z)-1-(4-((2-(6-chloroquinolin-4-yl)hydrazineylidene)methyl)phenyl)—N,N,N-trimethylmethanaminium iodide]
- inhibition at 30 µM [1]: < 30%
- inhibition at 30 µM [2, 5]: < 30%

Compound: Fc1ccc2c(N/N=C/c3ccc(-n4ccnc4)cc3)ccnc2c1 [Compound 5, (E)-4-(2-(4-(1H-imidazol-1-yl)benzylidene)hydrazinyl)-7-fluoroquinoline]
- IC50 ([1]; TDP43/Heparin Activity (IC-50)): 71.4 µM
- IC50 [2, 3]: 24 µM

Compound: Fc1ccc2c(N/N=C/c3ccc(CN4CCOCC4)cc3)ccnc2c1 [Compound 6, (E)-4-(4-((2-(7-fluoroquinolin-4-yl)hydrazono)methyl)benzyl)morpholine]
- inhibition at 30 µM [1]: < 30%
- inhibition at 30 µM [2, 5]: > 30%

Compound: CN1CCN(Cc2ccc(/C=N/Nc3ccnc4cc(Cl)ccc34)cc2)CC1 [Compound 7, (E)-7-chloro-4-(2-(4-((4-methylpiperazin-1-yl)methyl)benzylidene)hydrazinyl)quinolone]
- inhibition at 30 µM [1]: < 30%
- inhibition at 30 µM [2, 5]: > 30%

Compound: C(=N\Nc1ccc2c3c(cccc13)CC2)/c1ccc(-n2ccnc2)cc1 [Compound 8, (E)-1-(4-((2-(1,2-dihydroacenaphthylen-5-yl)hydrazineylidene)methyl)phenyl)-1H-imidazole]
- IC50 ([1]; TDP43/Heparin Activity (IC-50)): 10.8 µM
- inhibition at 30 µM [2, 4]: < 30%

Compound: C[n+]1ccc(/C=N\Nc2ccnc3ccccc23)cc1 [Compound 9, (Z)-1-methyl-4-((2-(quinolin-4-yl)hydrazono)methyl)pyridin-1-ium iodide]
- inhibition at 30 µM [1]: < 30%
- inhibition at 30 µM [2, 5]: < 30%

Compound: O=S1(=O)CCN(Cc2ccc(/C=N/Nc3ccnc4cc(F)ccc34)cc2)CC1 [Compound 10, (E)-4-(4-((2-(7-fluoroquinolin-4-yl)hydrazono)methyl)benzyl)thiomorpholine 1,1-dioxide]
- inhibition at 30 µM [1]: > 30%
- inhibition at 30 µM [2, 5]: < 30%

Compound: COc1cc2nccc(NN=Cc3ccc(-n4ccnc4)c(C)c3)c2cc1OC [Compound 11, 4-(2-(4-(1H-imidazol-1-yl)-3-methylbenzylidene)hydrazineyl)-6,7-dimethoxyquinoline hydrochloride]
- inhibition at 30 µM [1]: < 30%
- inhibition at 30 µM [2, 4]: < 30%

Compound: COc1ccc2c(NN=Cc3ccc(-n4ccnc4)c(C)c3)ccnc2c1 [Compound 12, 4-(2-(4-(1H-imidazol-1-yl)-3-methylbenzylidene)hydrazineyl)-7-methoxyquinoline]
- inhibition at 30 µM [1]: < 30%
- IC50 [2, 3]: 31.7 µM

Compound: COc1cc2nccc(N/N=C/c3ccc(-n4ccnc4)c(OC)c3)c2cc1OC [Compound 13, (E)-4-(2-(4-(1H-imidazol-1-yl)-3-methoxybenzylidene)hydrazineyl)-6,7-dimethoxyquinoline phosphate]
- inhibition at 30 µM [1]: < 30%
- inhibition at 30 µM [2, 4]: < 30%

Compound: Clc1ccc2c(N/N=C/c3ccc(-n4ccnc4)nc3)ccnc2c1 [Compound 14, (E)-4-(2-((6-(1H-imidazol-1-yl)pyridin-3-yl)methylene)hydrazineyl)-7-chloroquinoline hydrochloride]
- IC50 ([1]; TDP43/Heparin Activity (IC-50)): 4.32 µM
- IC50 [2, 3]: 7.67 µM
